Where two headings read alike, the source gives them in different places.

Test [1] can be described thus: Cell growth assay (WST-8) for "B" compounds. It counts as cell-based. To be noted: T47D, read-out: Cell growth Inhibition in T47D cell line IC50. The method in brief: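 Cells seeded at 1500/well overnight, then exposed to compounds for 4 days. 10% WST-8 added for 2.5 h at 37 °C and absorbance read at 450 nm. Growth given as absorbance relative to vehicle control, from three repeats.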

The next test deals with ER (Homo sapiens (Human), UniProt P03372). Nature of the test: In-cell western blot analysis of ER for "B" compounds. It counts as cell-based. Particulars: 16 hours, read-out: ICW DC50. The method in brief: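 In-cell western: fixed cells stained with primary antibodies (2 h, RT), then anti-rabbit-680 and anti-mouse-800 secondaries (1:1000, 1 h, RT), imaged on a LI-COR plate reader. Relative ER level in treated wells expressed against untreated and DMSO-treated wells set as 100%.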
Sequence of ER (P03372 whole entry): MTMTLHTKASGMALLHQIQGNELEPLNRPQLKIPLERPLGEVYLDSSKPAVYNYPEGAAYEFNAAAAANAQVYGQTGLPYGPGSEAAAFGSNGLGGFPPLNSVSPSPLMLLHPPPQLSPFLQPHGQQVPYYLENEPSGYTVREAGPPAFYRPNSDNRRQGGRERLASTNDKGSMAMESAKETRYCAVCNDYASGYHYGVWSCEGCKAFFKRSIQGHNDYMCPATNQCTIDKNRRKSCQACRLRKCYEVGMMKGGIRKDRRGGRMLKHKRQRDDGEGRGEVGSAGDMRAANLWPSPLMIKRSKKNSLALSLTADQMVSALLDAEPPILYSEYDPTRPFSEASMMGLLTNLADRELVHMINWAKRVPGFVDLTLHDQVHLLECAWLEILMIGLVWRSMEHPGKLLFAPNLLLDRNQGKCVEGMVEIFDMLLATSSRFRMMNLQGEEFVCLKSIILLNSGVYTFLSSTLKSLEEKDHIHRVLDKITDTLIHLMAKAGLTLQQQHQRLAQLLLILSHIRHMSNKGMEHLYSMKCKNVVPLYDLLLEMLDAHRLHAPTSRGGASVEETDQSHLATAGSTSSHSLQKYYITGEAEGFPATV

For the molecule `O=C1CC[C@H](N2Cc3c(ccc4c3OC[C@H]3CN(CC5CCC6(CN(c7ccc([C@@H]8c9ccc(O)cc9CC[C@@H]8c8ccccc8)cc7)C6)OC5)CCN43)C2=O)C(=O)N1` (stereo partly drawn) [Compound B333, (3S)-3-((5aR)-7-((2-(4-((1R,2S)-6-hydroxy-2-phenyl-1,2,3,4-tetrahydronaphthalen-1-yl)phenyl)-5-oxa-2-azaspiro[3.5]nonan-7-yl)methyl)-1-oxo-1,3,5,5a,6,7,8,9-octahydro-2H-pyrazino[1′,2′:4,5][1,4]oxazino[2,3-e]isoindol-2-yl)piperidine-2,6-dione], in test [1] (T47D cell line), the IC50 is below 0.001 µM. At ER, the DC50 was below 0.01 µM.
Consider `O=C1CCC(N2Cc3cc4c(cc3C2=O)OC[C@@H]2CN(CC(=O)OC3CCN(c5ccc([C@@H]6c7ccc(O)cc7CC[C@@H]6c6ccccc6)cc5)CC3)CCN42)C(=O)N1` (stereo partly drawn) [Compound B342, 1-(4-((1R,2S)-6-hydroxy-2-phenyl-1,2,3,4-tetrahydronaphthalen-1-yl)phenyl)piperidin-4-yl 2-((4aS)-9-(2,6-dioxopiperidin-3-yl)-8-oxo-1,2,4a,5,9,10-hexahydro-8H-pyrazino[1′,2′:4,5][1,4]oxazino[2,3-f]isoindol-3(4H)-yl)acetate], for which, in test [1] (T47D cell line), the IC50 was 0.001 to 0.01 µM. Moreover, at ER, the DC50 is below 0.01 µM.
For `O=C1CC[C@H](N2Cc3cc4c(cc3C2=O)OC[C@@H]2CN(CC3COC5(CCN(c6ccc([C@@H]7c8ccc(O)cc8CC[C@@H]7c7ccccc7)cc6)CC5)C3)CCN42)C(=O)N1` (stereo partly drawn) [Compound B227, (3S)-3-((4aS)-3-((8-(4-((1R,2S)-6-hydroxy-2-phenyl-1,2,3,4-tetrahydronaphthalen-1-yl)phenyl)-1-oxa-8-azaspiro[4.5]decan-3-yl)methyl)-8-oxo-1,2,3,4,4a,5,8,10-octahydro-9H-pyrazino[1′,2′: 4,5][1,4]oxazino[2,3-f]isoindol-9-yl)piperidine-2,6-dione] the same measures were below 0.001 µM and below 0.01 µM.
For `O=C1CC[C@H](NC(=O)c2ccc3c(n2)OC[C@H]2CN(CC4COC5(CCN(c6ccc([C@@H]7c8ccc(O)cc8CC[C@@H]7c7ccccc7)cc6)CC5)OC4)CCN32)C(=O)N1` [Compound B336, (R)-N-((S)-2,6-dioxopiperidin-3-yl)-3-((9-(4-((1R,2S)-6-hydroxy-2-phenyl-1,2,3,4-tetrahydronaphthalen-1-yl)phenyl)-1,5-dioxa-9-azaspiro[5.5]undecan-3-yl)methyl)-1,2,3,4,4a,5-hexahydropyrazino[1,2-d]pyrido[2,3-b][1,4]oxazine-8-carboxamide] the same measures were 0.001 to 0.01 µM and 0.01 to 0.1 µM.
Take `O=C1CCC(N2Cc3c(ccc4c3OCC43CCN(CC4CC5(CCN(c6ccc([C@@H]7c8ccc(O)cc8CC[C@@H]7c7ccccc7)cc6)CC5)CO4)CC3)C2=O)C(=O)N1` (stereo partly drawn) [Compound B175, 3-(1′-((8-(4-((1R,2S)-6-hydroxy-2-phenyl-1,2,3,4-tetrahydronaphthalen-1-yl)phenyl)-2-oxa-8-azaspiro[4.5]decan-3-yl)methyl)-6-oxo-6,8-dihydro-2H,7H-spiro[furo[2,3-e]isoindole-3,4′-piperidin]-7-yl)piperidine-2,6-dione]: the IC50 in test [1] is below 0.001 µM. Further, the DC50 on ER is 0.01 to 0.1 µM.
For the molecule `O=C1CCC(N2Cc3cc4c(cc3C2=O)OC[C@@H]2CN(C(=O)[C@H]3CC[C@@H](CN5CC(Nc6ccc([C@@H]7c8ccc(O)cc8CC[C@@H]7c7ccccc7)cc6)C5)CC3)CCN42)C(=O)N1` (stereo partly drawn) [Compound B140, 3-((S)-3-((1R,4S)-4-((3-((4-((1R,2S)-6-hydroxy-2-phenyl-1,2,3,4-tetrahydronaphthalen-1-yl)phenyl)amino)azetidin-1-yl)methyl)cyclohexane-1-carbonyl)-8-oxo-1,2,3,4,4a,5,8,10-octahydro-9H-pyrazino[1′,2′:4,5][1,4]oxazino[2,3-f]isoindol-9-yl)piperidine-2,6-dione], the concentration for half-maximal inhibition (IC50) in test [1] (T47D cell line) was below 0.001 µM. In addition, the DC50 at ER was below 0.01 µM.
Take `O=C1CCC(N2Cc3cc4c(cc3C2=O)OC[C@@H]2CN(CC3CCC5(C3)CN(c3ccc([C@@H]6c7ccc(O)cc7CC[C@@H]6c6ccccc6)cc3)C5)CCN42)C(=O)N1` (stereo partly drawn) [Compound B358, 3-((4aS)-3-((2-(4-((1R,2S)-6-hydroxy-2-phenyl-1,2,3,4-tetrahydronaphthalen-1-yl)phenyl)-2-azaspiro[3.4]octan-6-yl)methyl)-8-oxo-1,2,3,4,4a,5,8,10-octahydro-9H-pyrazino[1′,2′:4,5][1,4]oxazino[2,3-f]isoindol-9-yl)piperidine-2,6-dione]: the concentration for half-maximal inhibition (IC50) in test [1] (T47D cell line) was above 0.01 µM. At ER, the DC50 was in the range of 0.01 to 0.1 µM.
For `O=C1CC[C@H](N2Cc3cc4c(cc3C2=O)OC[C@@H]2CN(C[C@@H]3COC5(CCN(c6ccc([C@@H]7c8ccc(O)cc8CC[C@@H]7c7ccccc7)cc6)CC5)C3)CCN42)C(=O)N1` [Compound B399, (S)-3-((S)-3-(((R)-8-(4-((1R,2S)-6-hydroxy-2-phenyl-1,2,3,4-tetrahydronaphthalen-1-yl)phenyl)-1-oxa-8-azaspiro[4.5]decan-3-yl)methyl)-8-oxo-1,2,3,4,4a,5,8,10-octahydro-9H-pyrazino[1′,2′:4,5][1,4]oxazino[2,3-f]isoindol-9-yl)piperidine-2,6-dione] the same measures were below 0.001 µM and below 0.01 µM.
For `O=C1CCC(N2Cc3c(ccc4c3OC[C@H]3CN(C[C@@H]5CCN(c6ccc([C@@H]7c8ccc(O)cc8CC[C@@H]7c7ccccc7)cc6)C5)CCN43)C2=O)C(=O)N1` (stereo partly drawn) [Compound B215, 3-((R)-7-(((S)-1-(4-((1R,2S)-6-hydroxy-2-phenyl-1,2,3,4-tetrahydronaphthalen-1-yl)phenyl)pyrrolidin-3-yl)methyl)-1-oxo-1,3,5,5a,6,7,8,9-octahydro-2H-pyrazino[1′,2′:4,5][1,4]oxazino[2,3-e]isoindol-2-yl)piperidine-2,6-dione] the same measures were 0.001 to 0.01 µM and 0.01 to 0.1 µM.
For `O=C1CCC(N2Cc3cc4c(cc3C2=O)OC[C@@H]2CN(CC3CCC5(CN(c6ccc([C@@H]7c8ccc(O)cc8CC[C@@H]7c7ccccc7)cc6)C5)OC3)CCN42)C(=O)N1` (stereo partly drawn) [Compound B334, 3-((4aS)-3-((2-(4-((1R,2S)-6-hydroxy-2-phenyl-1,2,3,4-tetrahydronaphthalen-1-yl)phenyl)-5-oxa-2-azaspiro[3.5]nonan-7-yl)methyl)-8-oxo-1,2,3,4,4a,5,8,10-octahydro-9H-pyrazino[1′,2′:4,5][1,4]oxazino[2,3-f]isoindol-9-yl)piperidine-2,6-dione] the same measures were below 0.001 µM and 0.01 to 0.1 µM.
Consider `O=C1CC[C@H](NC(=O)c2ccc(N3CCN(CC4CCN(c5ccc([C@@H]6c7ccc(O)cc7CC[C@@H]6c6ccccc6)cc5)CC4)CC3)cn2)C(=O)N1` [Compound B316, N-((S)-2,6-dioxopiperidin-3-yl)-5-(4-((1-(4-((1R,2S)-6-hydroxy-2-phenyl-1,2,3,4-tetrahydronaphthalen-1-yl)phenyl)piperidin-4-yl)methyl)piperazin-1-yl)picolinamide], for which the IC50 in test [1] (T47D cell line) was in the range of 0.001 to 0.01 µM. Besides, the DC50 at ER is 0.01 to 0.1 µM.

In general, IC50 refers to the concentration that gives 50% inhibition.

Values taken from patent US20260028354A1, “TETRAHYDRONAPHTHALENE DERIVATIVES AS ESTROGEN RECEPTOR DEGRADERS” (REGENT OF THE UNIVERSITY OF MICHIGAN, priority 2022, published 2026).
